The text below walks through data of US5399748A, “Derivatives of aspartic acid and glutamic acid having anticholecystokinin activity” (James Black Foundation Limited, priority 1990, dated 1995).

What is called pKB is the negative decadic logarithm of the KB, by convention in mol/L.

Molecules are shown by their SMILES.

The assay concerns the target T1, CCK-A (Cavia porcellus, UniProt Q63931).
T1 construct: Isolated, strip preparations were prepared from gall-bladders removed from male Dunkin-Hartley guinea-pigs; from tissue; host or cells: isolated gall-bladder strips of male Dunkin-Hartley guinea-pigs
T1 sequence (Q63931 1-430): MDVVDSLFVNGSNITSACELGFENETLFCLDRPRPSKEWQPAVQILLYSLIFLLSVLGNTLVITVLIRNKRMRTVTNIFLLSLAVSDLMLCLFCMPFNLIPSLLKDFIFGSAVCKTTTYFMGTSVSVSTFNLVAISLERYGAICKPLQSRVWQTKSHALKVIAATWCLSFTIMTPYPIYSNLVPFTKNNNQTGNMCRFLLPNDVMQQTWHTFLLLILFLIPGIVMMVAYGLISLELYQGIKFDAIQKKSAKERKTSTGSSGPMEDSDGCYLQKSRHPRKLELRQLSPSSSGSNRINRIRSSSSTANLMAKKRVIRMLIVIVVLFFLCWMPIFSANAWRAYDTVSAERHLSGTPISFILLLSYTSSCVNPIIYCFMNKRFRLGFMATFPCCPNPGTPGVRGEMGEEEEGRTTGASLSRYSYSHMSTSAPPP
In words: CCK-receptor bioassay, isolated guinea-pig gall-bladder strips, CCK-8 as agonist. The assay is classed as cell-based, male Dunkin-Hartley guinea-pigs. To be noted: negative logarithm (base 10) of equilibrium dissociation constant (pKB), CCK-8 agonist, test compound incubated 60 minutes; for Kb: read-out: pK8 versus CCK (gallbladder) (converted). Here is the method:
The compounds were assayed using the CCK-receptor bioassay as follows:
Isolated, strip preparations were prepared from gall-bladders removed from male Dunkin-Hartley guinea-pigs (250-500 g body weight) according to the method of La Morte, W. W., et al., J.P.E.T., 217, (3), 638-644 (1981).
The complete gall-bladder is removed and opened along the longitudinal axis. Strips measuring 3 mm in the longitudinal axis and 1 mm in the transverse axis are cut and then tied with cotton to stainless steel wires. The preparation is connected to a GRASS FTO3 isometric transducer under an initial loading tension of 1 g and is immersed in 20 mls of Krebs solution maintained at 37° C. and gassed with 95% O2 /5% CO2. The composition (mM) of the Krebs solution is as follows: Na^+ 143, K^+ 5.9, Ca^2+ 0.5, Mg^2+ 1.2, Cl^- 128, H2 PO4^- 2.2, HCO3^- 24.9, SO4^2- 1.2, dextrose 10. After 30 mins the preparation is washed. Drug addition begins after an initial 90 min stabilisation period. Responses are measured as changes in tension from that immediately prior to any drug addition. Single cumulative agonist concentration-effect curves, using CCK-8 as agonist, are obtained on each preparation in the absence and presence of test compound which has been incubated for 60 minutes. The antagonist activity of the test compound is estimated and expressed as the negative logarithm (base 10) of the equilibrium dissociation constants (pKB) using the modifications of standard competitive analysis described by Black et al., Br. J. Pharmacol.,86,571-579, (1985) and Shankley et al., Br. J. Pharmacol.,94,264-274 (1988).

On to `COc1ccc2cc(S(=O)(=O)N[C@@H](CC(=O)O)C(=O)NCCc3ccccc3)ccc2c1Cl` [Example 13, 5-Chloro-6-methoxynaphthalenesulphonyl-L-aspartyl (2-phenethyl)amide], for which the pKB worked out at 6.49 ± 0.38. Same read-out and setting: as for `O=C(O)C[C@H](NS(=O)(=O)Cc1ccc2ccccc2c1)C(=O)NCCc1ccccc1` [Example 10, Naphthylmethanesulphonyl-L-aspartyl (2-phenethyl)amide], the figure is 5.40 ± 0.18; as for `O=C(O)C[C@H](NS(=O)(=O)/C=C/c1ccccc1)C(=O)NCCc1ccccc1` [Example 22, 2-phenethenylsulphonyl-L-aspartyl (2-phenethyl)amide], 6.27 ± 0.22. For `COc1cc2cc(S(=O)(=O)N[C@@H](CC(=O)O)C(=O)NCCc3ccccc3)ccc2c(Cl)c1OC` [Example 14, 5-Chloro-6,7-dimethoxynaphthalenesulphonyl-L-aspartyl (2-phenethyl)amide], the Kb was 0.617 µM. Consider `COc1ccc2cc(S(=O)(=O)N[C@@H](CC(=O)O)C(=O)NCCc3ccccc3)ccc2c1` [Example 12, 6-Methoxynaphthalenesulphonyl-L-aspartyl (2-phenethyl)amide], for which the Kb was 0.257 µM. Take `O=C(O)C[C@H](NS(=O)(=O)c1ccc(Cl)c(Cl)c1)C(=O)NCCc1ccccc1` [Example 9, 3,4-Dichlorobenzenesulphonyl-L-aspartyl (2-phenethyl)amide]: the Kb is 1.7 µM. On the same count and under the same terms, as for `O=C(O)C[C@H](NS(=O)(=O)CCc1ccccc1)C(=O)NCCc1ccccc1` [Example 7, 2-phenylethanesulphonyl-L-aspartyl (2-phenethyl)amide], the figure is 3.47 µM; as for `O=C(O)C[C@H](NS(=O)(=O)c1ccc2ccccc2c1)C(=O)NCCCc1ccccc1` [Example 23, 2 -Naphthalenesulphonyl-L-aspartyl (3-phenylpropyl)amide], 0.105 µM; as for `NS(=O)(=O)c1ccc(CCNC(=O)[C@H](CC(=O)O)NS(=O)(=O)c2ccc3ccccc3c2)cc1` [Example 20, 2-Naphthalenesulphonyl-L-aspartyl (2-(4-sulphonamidophenethyl)amide)], 11.2 µM. On the same count and under the same terms, in the case of `O=C(O)C[C@H](NS(=O)(=O)c1ccc2ccccc2c1)C(=O)NCCc1ccc(F)cc1` [Example 18, 2-Naphthalenesulphonyl-L-aspartyl (2(4-fluorophenethyl)amide)] it was 0.269 µM. The same measure, in the same setting: as for `O=C(O)CC[C@H](NS(=O)(=O)c1ccc2ccccc2c1)C(=O)NCCc1ccccc1` [Example 16, 2-Naphthalenesulphonyl-L-glutamyl (2-phenethyl)amide], the figure is 0.724 µM; as for `COc1ccc(CCNC(=O)[C@H](CC(=O)O)NS(=O)(=O)c2ccc3ccccc3c2)cc1` [Example 19, Naphthalenesulphonyl-L-aspartyl (2-(4-methoxyphenethyl)amide)], 1.02 µM. As for `O=C(O)C[C@H](NS(=O)(=O)c1ccc2ccccc2c1)C(=O)NCCc1ccccc1` [Example 1, 2-Naphthalenesulphonyl-L-aspartyl (2-phenethyl)amide], the Kb is 0.324 µM. On the same count and under the same terms, in the case of `O=C(O)C[C@H](NS(=O)(=O)c1ccc2ccccc2c1)C(=O)N1CCc2ccccc2C1` [Example 21, 2-Naphthalenesulphonyl-L-aspartyl (1,2,3,4-tetrahydroisoquinolin)amide] it was 7.24 µM. Still for that read-out and setting: in the case of `O=C(O)C[C@@H](NS(=O)(=O)c1ccc2ccccc2c1)C(=O)NCCc1ccccc1` [Example 15, 2-Naphthalenesulphonyl-D-aspartyl (2-phenethyl)amide] it was 1.2 µM.
